Like-named read-outs stand apart in the source and are kept apart here.
Assays:
Test in all cases: biochemical
Set-up in all cases: Reaction Biology 371-kinase panel at Km ATP, per cent enzyme activity relative to DMSO, single dose in duplicate
Details in all cases: duplicate measurements, Km ATP
DRAK1/STK17A = DRAK1/STK17A (Homo sapiens, UniProt Q9UEE5)
Summary of the method: (§1)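 In vitro selectivity panel: 371 kinases, inhibitor at 300 nM; % activity vs DMSO; IC50 by variable-slope sigmoidal fit, bottom = 0.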

GSK3b = GSK3b (Homo sapiens, UniProt P49841)
Summary of the method: as §1

LIMK2 = LIMK2 (Homo sapiens, UniProt P53671)
Summary of the method: as §1

MYLK4 = MYLK4 (Homo sapiens, UniProt Q86YV6)
Summary of the method: as §1

NEK5 = NEK5 (Homo sapiens, UniProt Q6P3R8)
Chain of NEK5 (Q6P3R8 whole entry): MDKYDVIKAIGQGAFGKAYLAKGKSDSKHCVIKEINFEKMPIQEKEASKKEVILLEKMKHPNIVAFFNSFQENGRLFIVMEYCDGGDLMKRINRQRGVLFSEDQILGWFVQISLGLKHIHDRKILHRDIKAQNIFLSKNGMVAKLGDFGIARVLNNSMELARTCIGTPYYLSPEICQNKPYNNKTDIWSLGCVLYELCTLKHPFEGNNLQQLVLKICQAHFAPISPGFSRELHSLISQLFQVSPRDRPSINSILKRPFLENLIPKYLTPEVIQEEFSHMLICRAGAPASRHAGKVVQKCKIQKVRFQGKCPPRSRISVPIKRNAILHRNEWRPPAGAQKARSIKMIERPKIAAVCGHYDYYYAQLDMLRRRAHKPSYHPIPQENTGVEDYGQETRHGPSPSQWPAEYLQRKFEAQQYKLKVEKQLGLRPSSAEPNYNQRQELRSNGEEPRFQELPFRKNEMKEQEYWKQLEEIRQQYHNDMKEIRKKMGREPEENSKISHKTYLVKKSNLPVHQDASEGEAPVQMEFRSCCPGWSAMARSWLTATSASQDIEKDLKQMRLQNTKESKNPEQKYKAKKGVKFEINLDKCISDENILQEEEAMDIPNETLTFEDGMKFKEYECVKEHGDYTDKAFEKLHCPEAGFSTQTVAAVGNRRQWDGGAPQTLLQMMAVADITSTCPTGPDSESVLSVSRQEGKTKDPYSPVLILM
Summary of the method: as §1

STK22D/TSSK1 = molecular target: T1, STK22D/TSSK1 (Homo sapiens, UniProt Q9BXA7)
T1 construct: gene TSSK1B
Summary of the method: as §1

NEK7 = NEK7 (Homo sapiens, UniProt Q8TDX7)
Summary of the method: as §1

CDK19/cyclin C = CDK19/cyclin C (Homo sapiens, UniProt Q9BWU1)
Summary of the method: as §1

GCK/MAP4K2 = GCK/MAP4K2 (Homo sapiens, UniProt Q12851)
Chain of GCK/MAP4K2 (Q12851 whole entry): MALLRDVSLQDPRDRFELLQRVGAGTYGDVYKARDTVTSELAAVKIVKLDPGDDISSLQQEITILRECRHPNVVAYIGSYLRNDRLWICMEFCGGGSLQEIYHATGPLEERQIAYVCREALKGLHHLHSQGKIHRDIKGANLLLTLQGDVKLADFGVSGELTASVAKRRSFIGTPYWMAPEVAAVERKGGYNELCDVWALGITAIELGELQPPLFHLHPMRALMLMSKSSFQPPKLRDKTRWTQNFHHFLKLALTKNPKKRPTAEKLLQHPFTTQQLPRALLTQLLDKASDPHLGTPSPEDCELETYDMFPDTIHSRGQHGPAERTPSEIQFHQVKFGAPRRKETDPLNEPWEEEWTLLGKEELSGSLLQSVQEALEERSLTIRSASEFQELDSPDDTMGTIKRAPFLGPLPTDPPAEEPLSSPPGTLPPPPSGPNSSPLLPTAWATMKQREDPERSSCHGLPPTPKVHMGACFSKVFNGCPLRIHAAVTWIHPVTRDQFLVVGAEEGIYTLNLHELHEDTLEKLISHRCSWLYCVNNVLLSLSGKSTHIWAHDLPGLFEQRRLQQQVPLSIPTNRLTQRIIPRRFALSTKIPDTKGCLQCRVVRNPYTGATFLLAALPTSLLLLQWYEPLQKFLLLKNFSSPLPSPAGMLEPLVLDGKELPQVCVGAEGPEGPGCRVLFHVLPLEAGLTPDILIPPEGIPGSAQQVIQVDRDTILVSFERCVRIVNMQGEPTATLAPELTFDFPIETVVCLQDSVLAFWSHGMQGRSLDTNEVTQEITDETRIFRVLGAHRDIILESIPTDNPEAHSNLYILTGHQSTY
Summary of the method: as §1

EPHA4 = EPHA4 (Homo sapiens, UniProt P54764)
Chain of EPHA4 (P54764 whole entry): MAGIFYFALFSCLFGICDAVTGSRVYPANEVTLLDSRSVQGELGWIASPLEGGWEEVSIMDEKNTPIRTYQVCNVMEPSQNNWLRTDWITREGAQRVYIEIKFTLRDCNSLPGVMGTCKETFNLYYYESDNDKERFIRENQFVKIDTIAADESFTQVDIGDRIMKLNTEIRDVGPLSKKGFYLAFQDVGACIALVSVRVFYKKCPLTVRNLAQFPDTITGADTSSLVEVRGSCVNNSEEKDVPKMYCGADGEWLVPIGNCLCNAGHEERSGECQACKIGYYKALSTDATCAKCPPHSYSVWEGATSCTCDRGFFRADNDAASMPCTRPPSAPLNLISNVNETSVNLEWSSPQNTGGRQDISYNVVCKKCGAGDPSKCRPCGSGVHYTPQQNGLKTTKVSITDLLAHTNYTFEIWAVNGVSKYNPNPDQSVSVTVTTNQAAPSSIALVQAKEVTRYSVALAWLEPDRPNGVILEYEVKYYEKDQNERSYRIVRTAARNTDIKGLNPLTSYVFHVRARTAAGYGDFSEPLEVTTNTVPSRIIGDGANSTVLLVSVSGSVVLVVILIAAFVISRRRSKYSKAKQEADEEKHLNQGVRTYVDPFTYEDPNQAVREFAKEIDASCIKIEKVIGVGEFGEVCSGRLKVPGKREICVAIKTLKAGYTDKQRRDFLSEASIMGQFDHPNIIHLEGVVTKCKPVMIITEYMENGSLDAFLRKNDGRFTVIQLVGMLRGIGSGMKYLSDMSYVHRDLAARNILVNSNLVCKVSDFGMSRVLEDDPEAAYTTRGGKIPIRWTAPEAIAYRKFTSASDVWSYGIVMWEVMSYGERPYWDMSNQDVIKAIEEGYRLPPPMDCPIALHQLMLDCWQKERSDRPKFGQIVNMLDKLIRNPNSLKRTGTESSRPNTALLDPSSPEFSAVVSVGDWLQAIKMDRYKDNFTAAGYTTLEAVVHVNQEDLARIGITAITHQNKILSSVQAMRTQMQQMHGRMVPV
Summary of the method: as §1

CDK2/cyclin E2 = CDK2/cyclin E2 (Homo sapiens, UniProt P24941)
Summary of the method: as §1

NEK2 = NEK2 (Homo sapiens, UniProt P51955)
Chain of NEK2 (P51955 whole entry): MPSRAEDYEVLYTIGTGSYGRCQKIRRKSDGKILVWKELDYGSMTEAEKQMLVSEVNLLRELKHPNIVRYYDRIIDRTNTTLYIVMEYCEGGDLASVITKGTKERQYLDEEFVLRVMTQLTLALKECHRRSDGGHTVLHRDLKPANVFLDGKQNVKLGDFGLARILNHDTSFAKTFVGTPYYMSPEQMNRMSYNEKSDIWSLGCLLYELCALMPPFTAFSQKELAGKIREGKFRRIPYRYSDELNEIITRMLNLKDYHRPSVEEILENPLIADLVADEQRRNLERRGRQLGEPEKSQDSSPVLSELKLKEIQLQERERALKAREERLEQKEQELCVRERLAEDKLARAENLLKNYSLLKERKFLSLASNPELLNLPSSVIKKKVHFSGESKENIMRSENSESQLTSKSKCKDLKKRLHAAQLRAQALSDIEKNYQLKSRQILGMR
Summary of the method: as §1

KSR1 = KSR1 (Homo sapiens, UniProt Q8IVT5)
Chain of KSR1 (Q8IVT5 whole entry): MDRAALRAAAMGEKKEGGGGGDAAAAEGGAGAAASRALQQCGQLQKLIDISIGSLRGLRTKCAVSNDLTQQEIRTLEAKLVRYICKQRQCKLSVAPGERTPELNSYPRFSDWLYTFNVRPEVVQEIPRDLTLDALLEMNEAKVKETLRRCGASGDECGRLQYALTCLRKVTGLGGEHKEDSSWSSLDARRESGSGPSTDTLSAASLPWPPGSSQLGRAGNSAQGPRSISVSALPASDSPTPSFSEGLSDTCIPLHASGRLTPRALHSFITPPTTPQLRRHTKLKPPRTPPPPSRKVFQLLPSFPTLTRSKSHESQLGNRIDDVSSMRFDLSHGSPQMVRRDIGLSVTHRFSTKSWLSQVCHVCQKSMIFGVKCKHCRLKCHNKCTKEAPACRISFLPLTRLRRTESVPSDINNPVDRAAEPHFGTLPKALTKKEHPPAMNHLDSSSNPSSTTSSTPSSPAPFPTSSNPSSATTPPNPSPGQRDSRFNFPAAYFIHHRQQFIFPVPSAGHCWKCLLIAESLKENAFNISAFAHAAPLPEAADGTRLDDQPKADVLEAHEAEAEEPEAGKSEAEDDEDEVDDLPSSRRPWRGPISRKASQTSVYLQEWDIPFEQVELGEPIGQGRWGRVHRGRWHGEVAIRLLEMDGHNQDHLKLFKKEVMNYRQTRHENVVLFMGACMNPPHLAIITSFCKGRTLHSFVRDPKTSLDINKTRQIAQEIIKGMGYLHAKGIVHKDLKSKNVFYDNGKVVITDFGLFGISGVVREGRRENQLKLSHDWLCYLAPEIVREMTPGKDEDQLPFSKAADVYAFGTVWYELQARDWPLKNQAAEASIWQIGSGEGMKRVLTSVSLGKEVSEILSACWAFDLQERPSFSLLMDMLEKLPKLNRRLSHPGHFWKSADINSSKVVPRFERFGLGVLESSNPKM
Summary of the method: as §1

CAMK2a = CAMK2a (Homo sapiens, UniProt Q9UQM7)
Chain of CAMK2a (Q9UQM7 whole entry): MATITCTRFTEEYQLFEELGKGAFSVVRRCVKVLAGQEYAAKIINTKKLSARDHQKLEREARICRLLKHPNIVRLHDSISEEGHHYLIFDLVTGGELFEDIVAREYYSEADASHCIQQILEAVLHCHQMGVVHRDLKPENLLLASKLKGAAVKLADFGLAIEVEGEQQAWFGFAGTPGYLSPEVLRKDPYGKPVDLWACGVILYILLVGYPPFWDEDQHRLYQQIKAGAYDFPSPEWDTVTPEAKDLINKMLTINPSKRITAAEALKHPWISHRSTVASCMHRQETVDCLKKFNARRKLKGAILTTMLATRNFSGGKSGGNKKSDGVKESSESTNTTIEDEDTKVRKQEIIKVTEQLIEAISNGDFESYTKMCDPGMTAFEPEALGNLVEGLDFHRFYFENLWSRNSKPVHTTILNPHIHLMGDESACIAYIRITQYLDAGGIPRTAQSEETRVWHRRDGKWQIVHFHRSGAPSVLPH
Summary of the method: as §1

Haspin = Haspin (Homo sapiens, UniProt Q8TF76)
Summary of the method: as §1

EPHA5 = EPHA5 (Homo sapiens, UniProt P54756)
Summary of the method: as §1

MAST3 = MAST3 (Homo sapiens, UniProt O60307)
Summary of the method: as §1

MLCK2/MYLK2 = MLCK2/MYLK2 (Homo sapiens, UniProt Q9H1R3)
Chain of MLCK2/MYLK2 (Q9H1R3 whole entry): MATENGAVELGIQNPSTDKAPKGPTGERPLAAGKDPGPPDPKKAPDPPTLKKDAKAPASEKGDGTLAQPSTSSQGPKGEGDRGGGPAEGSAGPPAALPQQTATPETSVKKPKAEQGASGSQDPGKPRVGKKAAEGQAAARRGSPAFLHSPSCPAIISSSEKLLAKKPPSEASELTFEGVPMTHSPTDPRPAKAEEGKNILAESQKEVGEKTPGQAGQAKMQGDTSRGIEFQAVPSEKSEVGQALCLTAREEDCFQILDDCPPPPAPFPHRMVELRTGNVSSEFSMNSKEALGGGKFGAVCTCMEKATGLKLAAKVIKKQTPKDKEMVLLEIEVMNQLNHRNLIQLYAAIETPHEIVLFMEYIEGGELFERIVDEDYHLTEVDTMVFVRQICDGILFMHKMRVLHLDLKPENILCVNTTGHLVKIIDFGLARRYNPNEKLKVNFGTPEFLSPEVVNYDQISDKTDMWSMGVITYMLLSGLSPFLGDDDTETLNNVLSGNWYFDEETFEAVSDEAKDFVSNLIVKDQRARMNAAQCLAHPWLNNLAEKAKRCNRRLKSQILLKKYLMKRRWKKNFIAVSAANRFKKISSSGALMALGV
Summary of the method: as §1

MAK = MAK (Homo sapiens, UniProt P20794)
Summary of the method: as §1

ALK1/ACVRL1 = ALK1/ACVRL1 (Homo sapiens, UniProt P37023)
Summary of the method: as §1

[1] = read-out: % Enzyme Activity (relative to DMSO controls) / TP-0005801 (0.3µM) / Data 1
[2] = read-out: % Enzyme Activity (relative to DMSO controls) / TP-0005801 (0.3µM) / Data 2

What does the source list for `COc1cc(N2CCN(C)CC2)c(C)cc1Nc1ncc(Br)c(Nc2cccnc2N(C)C)n1` [TP-5801]?
remaining activity at 0.3 µM (DRAK1/STK17A; [1]): 92%; remaining activity at 0.3 µM (DRAK1/STK17A; [2]): 88.6%; remaining activity at 0.3 µM (GSK3b; [1]): 96.4%; remaining activity at 0.3 µM (GSK3b; [2]): 95.7%; remaining activity at 0.3 µM (LIMK2; [1]): 114%; remaining activity at 0.3 µM (LIMK2; [2]): 108%; remaining activity at 0.3 µM (MYLK4; [1]): 108%; remaining activity at 0.3 µM (MYLK4; [2]): 96.9%; remaining activity at 0.3 µM (NEK5; [1]): 98.5%; remaining activity at 0.3 µM (NEK5; [2]): 96.9%; remaining activity at 0.3 µM (STK22D/TSSK1; [1]): 10.4%; remaining activity at 0.3 µM (STK22D/TSSK1; [2]): 8.14%; remaining activity at 0.3 µM (NEK7; [1]): 90.2%; remaining activity at 0.3 µM (NEK7; [2]): 89.5%; remaining activity at 0.3 µM (CDK19/cyclin C; [1]): 54.8%; remaining activity at 0.3 µM (CDK19/cyclin C; [2]): 54.1%; remaining activity at 0.3 µM (GCK/MAP4K2; [1]): 76.1%; remaining activity at 0.3 µM (GCK/MAP4K2; [2]): 73.9%; remaining activity at 0.3 µM (EPHA4; [1]): 98.9%; remaining activity at 0.3 µM (EPHA4; [2]): 98.5%; remaining activity at 0.3 µM (CDK2/cyclin E2; [1]): 102%; remaining activity at 0.3 µM (CDK2/cyclin E2; [2]): 101%; remaining activity at 0.3 µM (NEK2; [1]): 60.3%; remaining activity at 0.3 µM (NEK2; [2]): 55.8%; remaining activity at 0.3 µM (KSR1; [1]): 99.2%; remaining activity at 0.3 µM (KSR1; [2]): 97.6%; remaining activity at 0.3 µM (CAMK2a; [1]): 8.85%; remaining activity at 0.3 µM (CAMK2a; [2]): 8.25%; remaining activity at 0.3 µM (Haspin; [1]): 88.2%; remaining activity at 0.3 µM (Haspin; [2]): 86.9%; remaining activity at 0.3 µM (EPHA5; [1]): 122%; remaining activity at 0.3 µM (EPHA5; [2]): 117%; remaining activity at 0.3 µM (MAST3; [1]): 101%; remaining activity at 0.3 µM (MAST3; [2]): 100%; remaining activity at 0.3 µM (MLCK2/MYLK2; [1]): 104%; remaining activity at 0.3 µM (MLCK2/MYLK2; [2]): 100%; remaining activity at 0.3 µM (MAK; [1]): 98.4%; remaining activity at 0.3 µM (MAK; [2]): 94.1%; remaining activity at 0.3 µM (ALK1/ACVRL1; [1]): 88.3%; remaining activity at 0.3 µM (ALK1/ACVRL1; [2]): 83.6%
